Results as given in patent US20090312349A1, “ANTI-INFLAMMATORY MEDICAMENTS” (priority 2004, published 2009).

Target: T1, phospho p-38 alpha kinase (Homo sapiens, UniProt Q16539)
T1 construct: purchased Panvera
Assay: P-38 alpha kinase assay (spectrophotometric, pyruvate kinase/lactate dehydrogenase coupled)
Format: biochemical
Conditions: Table 5; @ 0.1 uM
Procedure: In this assay, the oxidation of NADH was continuously measured spectrophometrically. […] The reaction was initiated by adding ATP. The absorption at 340 nm was monitored continuously for up to 4 hours at 30° C. on Polarstar Optima plate reader (BMG). The kinase activity (reaction rate) was calculated from the slope at the time frame from 1.5 h to 2 h.
For inhibition determinations, test compounds were incubated with the reaction mixture for ˜5 min before adding ATP to start the reaction. […] IC50 values were calculated from a series of % inhibition values determined at a range of concentrations of each inhibitor using Prism to process the data and fit inhibition curves. Generally, the rates obtained at the time frame of 1.5 h to 2 h were used for these calculations.

T1 sequence (Q16539 whole entry): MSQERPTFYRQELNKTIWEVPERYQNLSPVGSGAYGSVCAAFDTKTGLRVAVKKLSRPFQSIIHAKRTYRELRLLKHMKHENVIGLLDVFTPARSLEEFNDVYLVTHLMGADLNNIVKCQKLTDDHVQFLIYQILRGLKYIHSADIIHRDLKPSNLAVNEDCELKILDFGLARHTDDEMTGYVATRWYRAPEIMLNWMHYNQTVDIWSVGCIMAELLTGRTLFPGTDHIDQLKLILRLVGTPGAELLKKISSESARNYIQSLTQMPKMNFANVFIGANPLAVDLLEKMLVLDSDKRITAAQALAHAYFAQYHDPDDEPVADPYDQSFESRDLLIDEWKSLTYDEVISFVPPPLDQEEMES

Structure (SMILES)	% @ concentration, uM
CCOC(=O)c1ccc(-n2nc(C)cc2NC(=O)Nc2cccc(Cl)c2Cl)cc1 [Example 346, ethyl 4-{5-[3-(2,3-dichlorophenyl)ureido]-3-methyl-1H-pyrazol-1-yl}benzoate]	19%
Cc1cc(NC(=O)Nc2cccc(Cl)c2Cl)n(-c2ccc(CO)cc2)n1 [Example 347, 1-(2,3-dichlorophenyl)-3-{1-[4-(hydroxymethyl)phenyl]-3-methyl-1H pyrazol-5-yl}urea]	8%
Cc1cc(NC(=O)Nc2cccc3ccccc23)n(-c2ccc(C(O)C(F)(F)F)cc2)n1 (stereo not drawn) [Example 348, 1-{3-methyl-1-[4-(2,2,2-trifluoro-1-hydroxyethyl)phenyl]-1H-pyrazol-5-yl}-3-(naphthalen-1-yl)urea]	17%
CC(C)c1cc(NC(=O)Nc2cccc3ccccc23)n(-c2cccc(C=O)c2)n1 [Example 350, 1-[1-(3-formylphenyl)-3-isopropyl-1H-pyrazol-5-yl]-3-(naphthalen-1-yl)urea]	39%

Same assay, conditions: Table 5; @ 1 uM

Structure (SMILES)	% @ concentration, uM
CCOC(=O)c1ccc(-n2nc(C)cc2NC(=O)Nc2cccc(Cl)c2Cl)cc1 [Example 346, ethyl 4-{5-[3-(2,3-dichlorophenyl)ureido]-3-methyl-1H-pyrazol-1-yl}benzoate]	63%
Cc1cc(NC(=O)Nc2cccc(Cl)c2Cl)n(-c2ccc(CO)cc2)n1 [Example 347, 1-(2,3-dichlorophenyl)-3-{1-[4-(hydroxymethyl)phenyl]-3-methyl-1H pyrazol-5-yl}urea]	31%
Cc1cc(NC(=O)Nc2cccc3ccccc23)n(-c2ccc(C(O)C(F)(F)F)cc2)n1 (stereo not drawn) [Example 348, 1-{3-methyl-1-[4-(2,2,2-trifluoro-1-hydroxyethyl)phenyl]-1H-pyrazol-5-yl}-3-(naphthalen-1-yl)urea]	47%
CC(C)c1cc(NC(=O)Nc2cccc3ccccc23)n(-c2cccc(C=O)c2)n1 [Example 350, 1-[1-(3-formylphenyl)-3-isopropyl-1H-pyrazol-5-yl]-3-(naphthalen-1-yl)urea]	64%
CN(C)C(=O)NCc1cccc(-n2nc(C(C)(C)C)cc2NC(=O)Nc2cccc3ccccc23)c1 [Example 384, 1-{3-t-butyl-1-[3-(3,3-dimethylureidomethyl)phenyl]-1H-pyrazol-5-yl}-3-(naphthalen 1-yl)urea]	72%

Same assay, conditions: Table 5; @ 2 uM

Structure (SMILES)	% @ concentration, uM
CCOC(=O)c1ccc(-n2nc(C(F)(F)F)cc2NC(=O)Nc2ccc(Cl)cc2)cc1 [Example 338, ethyl 4-{5-[3-(4 chlorophenyl)ureido]-3-(trifluoromethyl)-1H-pyrazol-1-yl}benzoate]	7% @ 2
O=C(Nc1ccc(Cl)cc1)Nc1cc(C(F)(F)F)nn1-c1ccc(CO)cc1 [Example 339, 1-(4-chlorophenyl)-3-{3-(trifluoromethyl)-1-[4-(hydroxyl-methyl)phenyl]-1H-pyrazol-5-yl}urea]	9% @ 2

Same assay, conditions: Table 5; @ 10 uM

Structure (SMILES)	% @ concentration, uM
CCOC(=O)c1cccc(-n2nc(C(F)(F)F)cc2NC(=O)Nc2cccc3ccccc23)c1 [Example 336]	27% @ 10
CC(C)(O)c1cccc(-n2nc(C(F)(F)F)cc2NC(=O)Nc2cccc3ccccc23)c1 [Example 337]	8% @ 10
CCOC(=O)c1cccc(-n2nc(C)cc2NC(=O)Nc2cccc3ccccc23)c1 [Example 340, ethyl 3-{3-methyl-5-[3-(naphthalen-1-yl)ureido]-1H-pyrazol-1-yl}benzoate]	31% @ 10
CCOC(=O)c1cccc(-n2nc(C(C)(C)C)cc2NC(=O)Nc2cccc3ccccc23)c1 [Example 366, ethyl 3-{3-t-butyl-5-[3-(naphthalen-1-yl)ureido]-1H-pyrazol-1-yl}benzoate]	53% @ 10
CC(C)(C)c1cc(NC(=O)Nc2cccc3ccccc23)n(-c2cccc(CO)c2)n1 [Example 367, 1-{3-t-butyl-1-[3-(hydroxymethyl)phenyl]-1H-pyrazol-5-yl)-3-(naphthalen-1-yl)-urea]	85% @ 10
CN(C)C(=O)NCc1cccc(-n2nc(C(C)(C)C)cc2NC(=O)Nc2cccc3ccccc23)c1 [Example 384, 1-{3-t-butyl-1-[3-(3,3-dimethylureidomethyl)phenyl]-1H-pyrazol-5-yl}-3-(naphthalen 1-yl)urea]	96%

Same assay, conditions: Table 5; assay not named; read-out: uM

IC50	Structure (SMILES)
0.13 µM	CCOC(=O)c1ccc(-n2nc(C(C)(C)C)cc2NC(=O)Nc2cccc3ccccc23)cc1 [Example 357, ethyl 4-{3-t-butyl-5-[3-(naphthalen-1-yl)ureido]-1H-pyrazol-1-yl}benzoate]
0.1 µM	CC(C)(C)c1cc(NC(=O)Nc2cccc3ccccc23)n(-c2ccc(CO)cc2)n1 [Example 358, 1-{3-t-butyl-1-[4-(hydroxymethyl)phenyl]-1H-pyrazol-5-yl}-3-(naphthalen-1-yl)urea]
0.39 µM	CC(O)c1ccc(-n2nc(C(C)(C)C)cc2NC(=O)Nc2cccc3ccccc23)cc1 (stereo not drawn) [Example 360, 1-{3-t-butyl 1-[4-(1-hydroxyethyl)phenyl]-1H-pyrazol-5-yl}-3-(naphthalen-1-yl)urea]
0.87 µM	C#CC(O)c1ccc(-n2nc(C(C)(C)C)cc2NC(=O)Nc2cccc3ccccc23)cc1 (stereo not drawn) [Example 361, 1-{3-t-butyl-1-[4-(1-hydroxyprop-2-ynyl)phenyl]-1H-pyrazol-5-yl}-3-(naphthalen-1-yl)urea]
0.19 µM	CC(C)(C)c1cc(NC(=O)Nc2cccc(Cl)c2Cl)n(-c2ccc(CO)cc2)n1 [Example 363, 1-{3-t-butyl-1-[(hydroxymethyl)phenyl]-1H-pyrazol-5-yl}-3-(2,3-dichloro-phenyl)urea]
0.01 µM	CC(C)(C)c1cc(NC(=O)Nc2cccc(Cl)c2Cl)n(-c2ccc(C(C)(C)O)cc2)n1 [Example 364, 1-{3-t-butyl-1-[4-(2-hydroxypropan-2-yl)phenyl]-1H-pyrazol-5-yl}-3-(2,3-dichlorophenyl)urea]
0.007 µM	CC(C)(C)c1cc(NC(=O)Nc2cccc(Cl)c2Cl)n(-c2ccc(C(=O)O)cc2)n1 [Example 365, 4{-3-t-butyl-5-[3-(2,3-dichlorophenyl)ureido]-1H-pyrazol-1-yl}benzoic acid]
1.46 µM	CC(C)(C)c1cc(NC(=O)Nc2cccc(Cl)c2Cl)n(-c2cccc(CO)c2)n1 [Example 372, 1-[3-t-butyl-1-(3-hydroxymethyl-phenyl)-1H-pyrazol-5-yl]-3-(2,3-dichlorophenyl)-urea]
0.037 µM	CC(C)(C)c1cc(NC(=O)Nc2cccc(Cl)c2Cl)n(-c2cccc(C(=O)O)c2)n1 [Example 374, 3-{3-t-butyl-5-[3-(2,3-dichlorophenyl)ureido]-1H-pyrazol-1-yl}benzoic acid]
0.48 µM	CC(C)(C)c1cc(NC(=O)Nc2ccc(Cl)cc2)n(-c2cccc(CO)c2)n1 [Example 376]
0.4 µM	CC(C)(C)c1cc(NC(=O)Nc2ccc(Cl)cc2)n(-c2cccc(CN3C(=O)NC(=O)C3=O)c2)n1 [Example 378, 1-{3-t-butyl-2-{3-[(2,4,5-trioxoimidazolidin-1-yl)methyl]phenyl}-1H-pyrazol-3-yl}-3-(4-chlorophenyl)urea]
2 µM	CC(C)(C)c1cc(NC(=O)Nc2ccc(Cl)cc2)n(-c2cccc(CN3C(=O)C(=O)NS3(=O)=O)c2)n1 [Example 380, 1-{5-t-butyl-2-[3-(1,1,3,4-tetraoxo-1λ^6-[1,2,5]thiadiazolidin-2-ylmethyl)phenyl]-2H-pyrazol-3-yl}-3-(4-chlorophenyl)urea]
0.88 µM	CC(C)(C)c1cc(NC(=O)Nc2cccc3ccccc23)n(-c2cccc(CNC(=O)N3CCOCC3)c2)n1 [Example 382, 1-(3-t-butyl-1-{3-[(morpholine-4-carboxamido)methyl]phenyl}-1H-pyrazol-5-yl)-3-(naphthalen-1-yl)urea]
0.1 µM	CC(C)(C)c1cc(NC(=O)Nc2cccc3ccccc23)n(-c2cccc(CNC(=O)N3CCCC3)c2)n1 [Example 383, 1-(3-t-butyl-1-{3-[(pyrrolidine-1-carboxamido)methyl]phenyl}-1H-pyrazol-5-yl)-3-(naphthalen-1-yl)urea]
0.03 µM	CC(C)(C)c1cc(NC(=O)Nc2ccc(Cl)cc2)n(-c2cccc(CNC(=O)N3CCCCC3)c2)n1 [Example 385, 1-(3-t-butyl-1-{3-[(piperidine-1-carboxamido)methyl]phenyl}-1H-pyrazol-5-yl)-3-(4-chlorophenyl)urea]
0.114 µM	CC(C)(C)c1cc(NC(=O)Nc2ccc(Cl)cc2)n(-c2cccc(CNC(=O)N3CCOCC3)c2)n1 [Example 386, 1-(3-t-butyl-1-{3-[(morpholine-4-carboxamido)methyl]phenyl}-1H-pyrazol-5-yl)-3-(4-chlorophenyl)urea]
4.45 µM	CC(C)(C)c1cc(NC(=O)Nc2ccc(Cl)cc2)n(-c2cccc(CNC(=O)N3CCCC3)c2)n1 [Example 387, 1-(3-r-butyl-1-{3-[(pyrrolidine-1-carboxamido)methyl]phenyl}-1H-pyrazol-5-yl)-3-(4-chlorophenyl)urea]

The next lines start with the compound.

Structure (SMILES)	IC50
CCOC(=O)c1ccc(-n2nc(C(C)C)cc2NC(=O)Nc2ccc(Cl)cc2)cc1 [Example 334, ethyl 4-{5-[3-(4-chlorophenyl)ureido]-3-isopropyl-1H-pyrazol-1-yl}benzoate]	2.2 µM
CC(C)c1cc(NC(=O)Nc2ccc(Cl)cc2)n(-c2ccc(CO)cc2)n1 [Example 335, 1-(4-chlorophenyl)-3-{1-[4-(hydroxymethyl)phenyl]-3-isopropyl-1H-pyrazol-5-yl}-urea]	0.014 µM
CCOC(=O)c1cccc(-n2nc(C)cc2NC(=O)Nc2cccc(Cl)c2Cl)c1 [Example 342, ethyl 3-{5-[3-(2,3-dichlorophenyl)ureido]-3-methyl-1H-pyrazol-1-yl}benzoate]	1 µM
CCOC(=O)c1ccc(-n2nc(C)cc2NC(=O)Nc2ccc(Cl)cc2)cc1 [Example 344, ethyl 4-{5-[3-(4-chlorophenyl)ureido]-3-methyl-1H-pyrazol-1-yl}benzoate]	0.18 µM
Cc1cc(NC(=O)Nc2ccc(Cl)cc2)n(-c2ccc(CO)cc2)n1 [Example 345, 1-(4-chlorophenyl)-3-{1-[4-(hydroxymethyl)phenyl]-3-methyl-1H-pyrazol-5-yl}urea]	0.27 µM
O=C(Nc1cccc(Cl)c1)Nc1cc(-c2ccccc2)nn1-c1cccc(CO)c1 [Example 352, 1-{3-phenyl-1-[3-(hydroxymethyl)phenyl]-1H-pyrazol-5-yl}-3-(3-chlorophenyl)urea]	0.043 µM
O=C(Nc1cccc(C(F)(F)F)c1)Nc1cc(-c2ccccc2)nn1-c1cccc(CO)c1 [Example 354, 1-{3-phenyl-1-[3-(hydroxymethyl)phenyl]-1H-pyrazol-5-yl}-3-(3-trifluoromethylphenyl)urea]	0.11 µM
COc1cccc(NC(=O)Nc2cc(-c3ccccc3)nn2-c2cccc(CO)c2)c1 [Example 355, 1-{3-phenyl-1-[3-(hydroxymethyl)phenyl]-1H-pyrazol-5-yl}-3-(3-methoxyphenyl)urea]	0.042 µM
